Nc1ccc(S(=O)(=O)Nc2ncccn2)cc1
solubility (mole fraction)
Details	278.15 K	283.15 K	288.15 K	293.15 K	298.15 K	303.15 K	308.15 K	313.15 K
in NMP	0.0118	0.0137	0.0153	0.018	0.0194	0.0224	0.132	0.137
in water	1.89e-06	2.51e-06	3.18e-06	3.96e-06	5.13e-06	6.32e-06	8.03e-06	9.98e-06

From BigSolDB 2.1
